Source: ChEMBL document CHEMBL5346925, “3,4-Dihydrobenzo[e][1,2,3]oxathiazine 2,2-dioxide analogs act as potential AMPA receptor potentiators with antidepressant activity” (Eur J Med Chem, 2023)
Active and inactive are the calls of the source. No cut-off for these calls is given here.

Key:
[1] = MRT (0 to t) in Sprague-Dawley rat at 0.1 mg/kg, iv by LC-MS/MS analysis; type: ADME, organism-based; conditions: in vivo
[2] = Toxicity in mouse assessed as change in body weight at 0.2 to 0.4 mg/kg, ip administered once daily for 2 weeks; type: organism-based; conditions: in vivo, 336 h, dose 0.2-0.4 mg/kg
[3] = Cmax in Sprague-Dawley rat at 0.1 mg/kg, iv by LC-MS/MS analysis; type: ADME, organism-based; parameters: dose 0.1 mg/kg, route iv; conditions: in vivo
[4] = Ratio of drug concentration in brain to plasma in Sprague-Dawley rat at 1 mg/kg, po measured after 1 hrs by LC-MS/MS analysis; type: ADME, organism-based; conditions: read-out: BPR
[5] = Volume of distribution at steady state in Sprague-Dawley rat at 0.1 mg/kg, iv by LC-MS/MS analysis; type: ADME, organism-based; conditions: in vivo, read-out: Vdss
[6] = Ratio of drug concentration in brain to plasma in Sprague-Dawley rat at 1 mg/kg, po measured after 0.25 hrs by LC-MS/MS analysis; type: ADME, organism-based; conditions: read-out: BPR
[7] = Drug concentration in Sprague-Dawley rat brain at 1 mg/kg, po measured after 8 hrs by LC-MS/MS analysis; type: ADME, organism-based; conditions: read-out: Ct
[8] = biological target: Glutamate receptor ionotropic, AMPA (Rattus norvegicus, UniProt P19490+P19491+P19492+P19493); experiment: Agonist activity at AMPA receptor in rat Primary neuron cells; type: cell-based
[9] = MRT (0 to infinity) in Sprague-Dawley rat at 0.1 mg/kg, iv by LC-MS/MS analysis; type: ADME, organism-based; conditions: in vivo
[10] = Half life in Sprague-Dawley rat at 1 mg/kg, po by LC-MS/MS analysis; type: ADME, organism-based; conditions: in vivo
[11] = Ratio of drug concentration in brain to plasma in Sprague-Dawley rat at 1 mg/kg, po measured after 4 hrs by LC-MS/MS analysis; type: ADME, organism-based; conditions: read-out: BPR
[12] = Ratio of drug concentration in brain to plasma in Sprague-Dawley rat at 1 mg/kg, po measured after 24 hrs by LC-MS/MS analysis; type: ADME, organism-based; conditions: read-out: BPR
[13] = AUC (0 to infinity) in Sprague-Dawley rat at 0.1 mg/kg, iv by LC-MS/MS analysis; type: ADME, organism-based; parameters: dose 0.1 mg/kg, route iv; conditions: in vivo
[14] = MRT (0 to t) in Sprague-Dawley rat at 1 mg/kg, po by LC-MS/MS analysis; type: ADME, organism-based; conditions: in vivo
[15] = Drug concentration in Sprague-Dawley rat plasma at 1 mg/kg, po measured after 0.25 hrs by LC-MS/MS analysis; type: ADME, organism-based
[16] = Cmax in Sprague-Dawley rat at 1 mg/kg, po by LC-MS/MS analysis; type: ADME, organism-based; parameters: dose 1 mg/kg, route po; conditions: in vivo
[17] = Drug concentration in Sprague-Dawley rat plasma at 1 mg/kg, po measured after 2 hr by LC-MS/MS analysis; type: ADME, organism-based
[18] = Drug concentration in Sprague-Dawley rat brain at 1 mg/kg, po measured after 0.50 hr by LC-MS/MS analysis; type: ADME, organism-based; conditions: read-out: Ct
[19] = Drug concentration in Sprague-Dawley rat plasma at 1 mg/kg, po measured after 8 hr by LC-MS/MS analysis; type: ADME, organism-based
Mus musculus = experiment: Antidepressant activity in chronic restraint induced depressive mouse assessed as rescue in immobility time at 0.03 to 0.05 mg/kg administered for 1 day after 14th day by forced swimming test; type: functional, organism-based; conditions: dose 0.03-0.05 mg/kg
[20] = Toxicity in mouse assessed as histopathological changes in spleen at 0.2 to 0.4 mg/kg, ip administered once daily for 2 weeks and measured after 15 days by H and E staining based analysis; type: organism-based; conditions: in vivo, 360 h, dose 0.2-0.4 mg/kg, time 15 day
[21] = Tmax in Sprague-Dawley rat at 1 mg/kg, po by LC-MS/MS analysis; type: ADME, organism-based; conditions: in vivo
[22] = Drug concentration in Sprague-Dawley rat plasma at 1 mg/kg, po measured after 0.50 hrs by LC-MS/MS analysis; type: ADME, organism-based
[23] = Toxicity in mouse assessed as histopathological changes in liver at 0.2 to 0.4 mg/kg, ip administered once daily for 2 weeks and measured after 15 days by H and E staining based analysis; type: organism-based; conditions: in vivo, 360 h, dose 0.2-0.4 mg/kg, time 15 day
[24] = Toxicity in mouse assessed as histopathological changes in kidney at 0.2 to 0.4 mg/kg, ip administered once daily for 2 weeks and measured after 15 days by H and E staining based analysis; type: organism-based; conditions: in vivo, 360 h, dose 0.2-0.4 mg/kg, time 15 day
[25] = AUC (0 to infinity) in Sprague-Dawley rat at 1 mg/kg, po by LC-MS/MS analysis; type: ADME, organism-based; parameters: dose 1 mg/kg, route po; conditions: in vivo
[26] = MRT (0 to infinity) in Sprague-Dawley rat at 1 mg/kg, po by LC-MS/MS analysis; type: ADME, organism-based; conditions: in vivo
[27] = biological target: T1, Glutamate receptor ionotropic, AMPA (Rattus norvegicus) (UniProt P19491+P19492+P19493+P19490); experiment: Agonist activity at AMPA receptor in rat Primary neuron cells assessed as increase in fluorescence level at 1 uM incubated for 1 hr by calcium 2+ influx assay relative to s-AMPA coupled TAK-137; type: cell-based
[28] = Drug concentration in Sprague-Dawley rat plasma at 1 mg/kg, po measured after 1 hr by LC-MS/MS analysis; type: ADME, organism-based
[29] = Half life in Sprague-Dawley rat at 0.1 mg/kg, iv by LC-MS/MS analysis; type: ADME, organism-based; conditions: in vivo
[30] = Drug concentration in Sprague-Dawley rat brain at 1 mg/kg, po measured after 2 hrs by LC-MS/MS analysis; type: ADME, organism-based; conditions: read-out: Ct
[31] = Drug concentration in Sprague-Dawley rat plasma at 1 mg/kg, po measured after 6 hr by LC-MS/MS analysis; type: ADME, organism-based
[32] = biological target: T1, Glutamate receptor ionotropic, AMPA (Rattus norvegicus); experiment: Agonist activity at AMPA receptor in rat Primary neuron cells relative to control; type: cell-based; conditions: filed as agonist
[33] = Oral bioavailability in Sprague-Dawley rat at 1 mg/kg by LC-MS/MS analysis; type: ADME, organism-based; conditions: in vivo
[34] = Drug concentration in Sprague-Dawley rat brain at 1 mg/kg, po measured after 4 hrs by LC-MS/MS analysis; type: ADME, organism-based; conditions: read-out: Ct
[35] = Ratio of drug concentration in brain to plasma in Sprague-Dawley rat at 1 mg/kg, po measured after 6 hrs by LC-MS/MS analysis; type: ADME, organism-based; conditions: read-out: BPR
[36] = Tmax in Sprague-Dawley rat at 0.1 mg/kg, iv by LC-MS/MS analysis; type: ADME, organism-based; conditions: in vivo
[37] = Drug concentration in Sprague-Dawley rat plasma at 1 mg/kg, po measured after 24 hr by LC-MS/MS analysis; type: ADME, organism-based
[38] = Ratio of drug concentration in brain to plasma in Sprague-Dawley rat at 1 mg/kg, po measured after 8 hrs by LC-MS/MS analysis; type: ADME, organism-based; conditions: read-out: BPR
[39] = Drug concentration in Sprague-Dawley rat brain at 1 mg/kg, po measured after 24 hrs by LC-MS/MS analysis; type: ADME, organism-based; conditions: read-out: Ct
[40] = Ratio of drug concentration in brain to plasma in Sprague-Dawley rat at 1 mg/kg, po measured after 2 hrs by LC-MS/MS analysis; type: ADME, organism-based; conditions: read-out: BPR
[41] = Drug concentration in Sprague-Dawley rat brain at 1 mg/kg, po measured after 6 hrs by LC-MS/MS analysis; type: ADME, organism-based; conditions: read-out: Ct
[42] = Drug concentration in Sprague-Dawley rat plasma at 1 mg/kg, po measured after 4 hr by LC-MS/MS analysis; type: ADME, organism-based

For O=S1(=O)NCc2cccc(-c3ccc(-c4ccccc4F)cc3)c2O1, the MRT last [1] was 1.46 h, the Activity [2] was “Non-Toxic” and the Cmax [3] was 152 ng/mL. The Kp at 1 h [4] was 1.63, the Vd [5] was 1.72 L/kg and the Kp at 0.25 h [6] was 0.59. It also gave a concentration at 8 h [7] of 37.2 ng/g, an EC50 [8] of 178 nM and an MRT inf [9] of 2.22 h. The half-life [10] was 4.84 h, the Kp at 4 h [11] was 1.55 and the Kp at 24 h [12] was 1.48. For the same compound, the AUC(0-inf) [13] was 129 ng·h/mL, the MRT last [14] was 5.22 h and the concentration at 0.25 h [15] was 125 ng/mL. The Cmax [16] was 142 ng/mL, the concentration at 2 h [17] was 62.3 ng/mL and the concentration at 0.5 h [18] was 150 ng/g. The concentration at 8 h [19] was 25.5 ng/mL, the Activity (Mus musculus) was “Active” and the Activity [20] was “Non-Toxic”. For the same compound, the Tmax [21] was 0.5 h, the concentration at 0.5 h [22] was 142 ng/mL and the Activity [23] was “Non-Toxic”. For the same compound, the Activity [24] was “Non-Toxic”, the AUC(0-inf) [25] was 833 ng·h/mL and the MRT inf [26] was 6.08 h. For the same compound, the Activity [27] was -2.6%, the concentration at 1 h [28] was 132 ng/mL and the half-life [29] was 2.71 h. It also gave a concentration at 2 h [30] of 133 ng/g, a concentration at 6 h [31] of 54.2 ng/mL and an Emax [32] of 137%. For the same compound, the bioavailability [33] was 67.2%, the concentration at 4 h [34] was 120 ng/g and the Kp at 6 h [35] was 1.73. The Tmax [36] was 4.8 min, the concentration at 24 h [37] was 3.96 ng/mL and the Kp at 8 h [38] was 1.5. The concentration at 24 h [39] was 6.05 ng/g, the Kp at 2 h [40] was 2.15 and the concentration at 6 h [41] was 93 ng/g. The concentration at 4 h [42] was 79.3 ng/mL.
